From US11058725B2, “CA2 compositions and methods for tunable regulation” (Obsidian Therapeutics, Inc., priority 2019, dated 2021)
Read-outs that look alike come from different tables or passages of the source.

Experiments:
TIL = experiment: Expression of regulated mbIL15 in TIL in response to ACZ (anti-IL15 and IL15Ra-Fc co-staining); assay type: cell-based, human
Procedure: HEK293T cells were seeded on collagen coated tissue culture plates until 70% confluent. Cells were transfected with pELNS transfer vector carrying constitutive (IL15-292) or regulated (IL15-293) IL15 constructs, as well as packaging plasmids (pRSV.REV, pMDLg/pRRE and OT-BaEVg-002 (SEQ ID NO: 51)) using Lipofectamine 3000 transfection reagent in Opti-MEM media. Media was replaced 6-8 hrs post-transfection with serum-free media. Supernatants containing virus were harvested 24 hr post-transfection, fresh media was added, and supernatants were harvested again at 48 hr post-transfection. Viral supernatants were filtered to remove debris and concentrated by low speed ultracentrifugation. Virus were resuspended, aliquoted and stored at −80 C freezer.
96-well non-coated tissue culture plates were incubated with 35 μg per mL RetroNectin (Takara Bio) in PBS for 2 h at 37° C. or overnight at 4° C. RetroNectin was removed and the plates washed with PBS. BaEV-pseudotyped lentivirus, prepared as described above, and TIL cell media, at a total volume of 50 μL per well, were added to each well and the plates were centrifuged at low speed for 2 hours at 32° C. TIL generated from a head and neck tumor sample prepared as described in Example 5 were engineered after 3 weeks in the pre-REP culture. TIL were activated for 24 hrs in 24-well plates with anti-CD3/CD28 beads at 3:1 bead to T cell ratio. Activated TIL were placed in virus-coated plates and centrifuged at 800 g for 2 hrs and incubated at 37° C. for 4 days in culture media. One well of cells was processed similarly without virus addition and used as negative control (“untransduced”). Cells that were transduced with the regulated mbIL15 construct were treated either with 10 μM ACZ or DMSO for 24 hrs.
mbIL15 expression was determined by flow cytometry using two staining reagents: fluorochrome-conjugated anti-IL15 antibody as well as a recombinant protein comprised of extracellular domain of IL15Ra fused to human IgG1 Fc domain (IL15Ra-Fc). mbIL15+ cell frequency was determined based on co-staining with anti-IL15 and IL15Ra-Fc (identified as the IL15+IL15Ra-Fc+ double positive population).

T cells [1] = experiment: Acetazolamide dose response of IL15 expression on transduced T cells (flow cytometry); assay type: cell-based, human; conditions: ACZ 24 hrs starting at 100 μM, diluted 3-fold for 9 points
Procedure: Cells were treated with different concentrations of ACZ (ligand) starting at 100 μM for 24 hrs. Graphs show % IL15+ T Cells (FIG. 4A) and mean fluorescence intensity (MFI) of IL15 (FIG. 4B).
The effect of different concentrations of ACZ on IL15 expression was tested. T cells were treated with ACZ for 24 hrs starting at 100 μM, diluted 3-fold for 9 points. Both % IL15+ T Cells (FIG. 4A) and IL15 Mean Fluorescence Intensity (MFI) (FIG. 4B) analysis indicated similar dose curves for OT-IL15-293 and OT-IL15-295. There was 4-5-fold increase in expression (both % IL15+ T cells and IL15 MFI) between highest and lowest concentrations of ACZ.

Human primary T cells = experiment: In vitro antigen-independent expansion of T cells transduced with constitutive or ACZ-regulated mbIL15 constructs (cell numbers by flow cytometry); assay type: cell-based
Procedure: T cells were thawed, cells were washed and counted. T cells were mixed with CD3/CD28 beads (Invitrogen cat#11141D) at 3:1 bead to T cell ratio. 5×10^5 cells/well were added to 24-well plates in 500 μL media. Cells were activated for 24 hrs. Next day, lentivirus was thawed and added to each well at different volumes. After 24 hrs, 500 μL of fresh media was added to wells, and cells were expanded by adding equal volume of fresh media every 2-3 days to keep cell density at 0.5-1×10^6/mL. Cells were analyzed by flow cytometry to confirm expression on day 5 or 6. Cells were expanded for 9-10 days.
After T cell transduction and expansion, CD3/CD28 beads were removed using magnets, cells were washed twice, resuspended in fresh media and counted. Cells were plated in 12-well plates at 1×10^6 in 2 mL. One well of untransduced cells was cultured in the presence of 2 ng/mL IL15 as a control. T cells expressing regulated constructs were cultured in the absence or presence of acetazolamide (ACZ, 30, 10, 3, 1, 0.3 μM). Cell numbers were monitored by flow cytometry every 3-4 days and cells were cultured for 10-12 days. At each time point 100 μL of cells were collected from wells and analyzed by flow cytometry. Cells were split as needed. Cell cultures were maintained in 12-well plates by taking a portion and adding media in a new plate. Volumes for each well were recorded before and after split to calculate final volume in cell number assessment. IL15 or ACZ were replenished at final concentration of the fresh media added during each split.
T cell numbers were determined by flow cytometry. Empty vector (EV) transduced cell numbers decreased to background levels between 3-5 days in the absence of IL15, and cells expanded 11-fold in the presence of 2 ng/mL exogenous IL15 (FIG. 3A). T cells expressing constitutive IL15-292 and IL15-294 expanded between 18 and 21-fold, respectively, in 10 days (FIG. 3A). In T cells expressing IL15-293, maximum expansion was 9.5-11× with 30, 10, 3 μM (FIG. 3B). At the lowest concentration tested (0.3 μM), cells expanded 3.3×. These cells survived longer (0.8×) compared to EV cells without drug treatment […]. In T cells expressing IL15-295, maximum expansion was 8.2-10× with 30, 10, 3 μM and cells expanded 4.9× at the lowest concentration (0.3 μM) tested (FIG. 3C). Without drug treatment, these cells survived (0.9×) longer compared to EV.

T cells [2] = experiment: IL15 expression on T cells in vivo on day 25 (IL15Ra-Fc staining, flow cytometry); parameters: species or system NSG mice; conditions: day 25, treated with ACZ 200 mg/kg daily PO
Procedure: Human primary T cells capable of expressing constitutive mbIL15 or ACZ-regulated mbIL15 were prepared in accordance with methods described in Example 1 above. After T cell transduction and expansion, CD3/CD28 beads were removed using magnets, cells were washed twice, resuspended in fresh media and counted. T cells were mixed with expanded NK cells and each animal received 5×10^6 T cells and 2×10^6 expanded NK cells. Cells were infused by intravenous injections into NSG mice. Animals infused with T cells expressing regulated constructs were dosed daily with 200 mg/kg ACZ or vehicle by PO injections. Every 3-4 days, 50 μL blood was analyzed by flow cytometry for presence of T cells and NK cells using antibodies against mouse and human CD45, CD3 and CD56. IL15 expression on day 25 was analyzed using IL15Ra-Fc and fluorochrome conjugated anti-human IgG antibody.
IL15 expression on T cells in vivo on day 25 was analyzed by flow cytometry (FIG. 5C). T cells transduced with constitutive constructs IL15-292 and IL15-294 expressed high levels of IL15 (82% and 61%). IL15 expression was <1.5% in vehicle-treated IL15-293 and IL15-295 as well as EV groups. IL15 expression levels were 11% and 9% on T cells transduced with IL15-293 and IL15-295 in groups treated with ACZ.

[3] = tested on: TIL-matched patient-derived xenografts (hPDX); experiment: Human PDX (hPDX) model with engineered matched TIL; assay type: in vivo, NSG mice
Source text: To evaluate the effect of regulated mbIL15 on the anti-tumor activity of tumor infiltrating lymphocytes (TIL), a human PDX (hPDX) model is used. […] TIL are transduced with BaEV-pseudotyped lentiviral vectors containing either the IL15-292 construct or the IL15-293 construct, as described in Example 6, or with BaEV-pseudotyped lentiviral empty vector (EV), and then optionally frozen. TIL-matched patient-derived xenografts (hPDX) from the tumor sample are established via subcutaneous implant into the right flank of NSG mice. Tumor growth is measured once or twice per week using calipers. On study start, tumors are measured, and mice are randomized and placed in cohorts based on similar mean tumor volume across all groups into new cages (N=8 for each group). […]
Group 1 receives untransduced TIL supplemented with recombinant human IL2 (hIL2) as benchmark control, and group 2 receives TIL transduced with constitutive mbIL15 (IL15-292). […] Blood (50 μL) was withdrawn from submandibular veins on pre-determined days. Red blood cells are lysed, stained with fluorochrome-conjugated antibodies against human CD45, CD3 and mouse CD45, and cells are analyzed by flow cytometry. Tumor growth is measured for up to approximately 90 days; endpoints include maximal caliper measurements as well as effects on animal health, such as tumor necrosis and decrease in body weight.

[4] = tested on: cord blood-derived NK cells; experiment: Regulation of mbIL15 construct with ACZ in cord blood-derived NK cells (IL15Ra-Fc and anti-CD56 FACS); assay type: cell-based, human; conditions: DMSO overnight, regardless of donor
Procedure: One day prior to NK cell isolation as described in Example 8, feeder cells (K562 cells expressing 4-1BBL and mblL-21) were thawed in complete NK cell media (RPMI with Glutamax (ThermoFisher), 10% heat-inactivated fetal bovine serum (Gibco), 1× Penicillin/Streptomycin, 1 mM Sodium Pyruvate, 1×HEPES, 50 μM 2-Mercaptoethanol). On the day of NK cell isolation, 10×10^6 feeder cells were treated with mitomycin C to inhibit their proliferation and washed to remove excess drug. NK cells were added to the feeder cells at a 1:2 effector to target ratio in NK cell media with 200 U/mL recombinant human IL2 (rhIL2; PeproTech). NK cell cultures were expanded by replenishing cell cultures with NK cell media and rhIL2 every two days, and analyzed by FACS for NK cell expansion.
96-well non-coated tissue culture plates were incubated with 35 μg per mL RetroNectin (Takara Bio) in PBS for 2 h at 37° C. or overnight at 4° C. RetroNectin was removed and the plates washed with PBS. […]
NK cells from three different donors were isolated, expanded and transduced with BaEV-pseudotyped lentivirus containing either the IL15-292 construct or the IL15-293 construct. The titer of the IL15-292 lentivirus was 2.38×10^8 TU/mL while the titer for the IL15-293 lentivirus was 6.51×10^8 TU/mL (as measured by a Jurkat qPCR titer), and 4 μL lentivirus and 46 μL NK cell media were added to each well. […]

HL-60-luc = experiment: HL-60 animal model of acute myeloid leukemia with engineered NK cells; assay type: in vivo, NSG mice
Procedure: To evaluate the effect of regulated mbIL15 on the anti-tumor activity of NK cells, an HL-60 animal model of acute myeloid leukemia is used. Cord blood NK cells are transduced with BaEV-pseudotyped lentiviral vectors containing either the IL15-292 construct or the IL15-293 construct, as described in Example 9, or with BaEV-pseudotyped lentiviral empty vector (EV), and optionally frozen after transduction. HL-60 cells expressing luciferase (HL-60-luc) are injected intravenously (1×10^6/mouse) into NSG mice and tumor growth is measured once or twice per week by bioluminescence imaging measurement (total flux units in photons per second (p/s) after intraperitoneal injections of D-luciferin). On day 6, animals are randomized into new cages (N=8 for each group) when average tumor size reaches approximately 10^6 total p/s. […]
Group 1 receives NK cells engineered with EV as a negative control, and group 2 receives NK cells transduced with constitutive mbIL5 (construct IL15-292). […] Red blood cells are lysed, stained with fluorochrome-conjugated antibodies against human CD45, CD3 and mouse CD45, and cells are analyzed by flow cytometry. Tumor growth is measured up to approximately 30 days; endpoints include maximal total flux units (10^10) as well as effects on animal health such as hind-limb paralysis and decrease in body weight.

| EC50 (T cells [1]; read-out: EC50 of ACZ based on % IL15+ T Cells) | EC50 (T cells [1]; read-out: EC50 of ACZ based on MFI of IL15) | Substance | MFI of regulated mbIL15 in TIL (TIL; 10 μM ACZ 24 hrs) | regulated mbIL15 expression in TIL (TIL; 10 μM ACZ 24 hrs) | MFI of regulated mbIL15 in TIL (TIL; DMSO 24 hrs) | regulated mbIL15 expression in TIL (TIL; DMSO 24 hrs) | T cell expansion at the lowest concentration tested (Human primary T cells; ACZ 0.3 μM) | maximum T cell expansion (Human primary T cells; ACZ 30, 10, 3 μM) | T cell survival/expansion without drug treatment (Human primary T cells; no ACZ) | IL15 expression on T cells (T cells [2]) | tumor growth ([3]; group 3, TIL transduced with regulated mbIL15, 200 mg/kg ACZ daily PO) | tumor growth ([3]; group 4, TIL transduced with regulated mbIL15, vehicle daily) | regulated mbIL15 expression in NK cells [4] | tumor growth (HL-60-luc; group 3, NK cells transduced with regulated mbIL15, 200 mg/kg ACZ daily PO) | NK cell expansion and persistence compared to groups 1 and 4 (HL-60-luc; group 3, regulated mbIL15, 200 mg/kg ACZ daily PO) | T cell expansion (Human primary T cells; Empty vector (EV) transduced cells, 2 ng/mL exogenous IL15) |
| --- | --- | --- | --- | --- | --- | --- | --- | --- | --- | --- | --- | --- | --- | --- | --- | --- |
| 290 nM | 650 nM | IL15-293: ACZ-regulated mbIL15 construct, mbIL15 linked to CA2 (M1del, L156H) DRD (AA SEQ ID NO: 24) | high | 42.5% | low | 17.1% | 3.3 × | 9.5-11 × | 0.8 × | 11% | substantially regress | No tumor growth inhibition | ≤ 10% | regress substantially | higher expansion and persistence |  |
|  |  | exogenous IL15: exogenous IL15 (2 ng/mL) added to control T cell cultures [reference compound] |  |  |  |  |  |  |  |  |  |  |  |  |  | 11 fold |
